# Patent publication US11738072B2, “Tumor vaccine and uses thereof” (WestVac Biopharma Co., Ltd., priority 2017, dated 2023)
# Legend:
# [1] = system: mouse cervical cancer cell line U14; experiment: Mice U14 subcutaneous model, complex combined with chemotherapy; type: in vivo, C57 female mice; conditions: U14 sc
# Method: C57 female mice aged 6-8 weeks were raised. The mouse cervical cancer cell line U14 cultured to the logarithmic growth phase was prepared into a cell suspension and the cell density was 2×10^7/ml. Experimental animals were subcutaneously injected on the right back, with an injection system of 100 μl per mouse. When the tumor could be palpated (tumor volume is about 4 mm×4 mm×3 mm, i.e. the 5th day after inoculation), the mice were randomly divided into 6 groups, and administrated every 3 days for a total of 8 times according to the grouping and treatment scheme in Table 16. The tumor volume was measured every three days. After administration for 8 times, the mice were killed and subcutaneous tumors were dissected for examination.
# Wherein, the administration volume is 100 μl per mouse, DDP is intraperitoneally administrated once a week. DDP is Cisplatin and LP is pMVA-1/DOTAP complex.
# A549 cells [2] = experiment: ROS level by H2DCF-DA fluorescence probe, flow cytometry; type: cell-based
# Method: (1) Sample loading: […] (3) […] CM-H2DCFDA fluorescent probe (made by Sigma) was added to the resuspended cells prepared in Step (2), incubated at 37° C. for 0.5 h, washed with PBS and resuspended; (4) The resuspended cells in Step (3) were tested with flow cytometry (Novocyte), and the test results were analyzed by Novoexpress software.
# A549 cells [3] = experiment: Death ratio of A549 cells pretreated with NAC, flow cytometry; type: cell-based; conditions: pretreated with NAC before pMVA-1/DOTAP complex
structure (smiles),measurement,setting,value
N.N.[Cl][Pt][Cl] [Cisplatin],lymphocyte infiltration in tumor tissue,[1],less common
same,"tumor volume vs NS group, DOTAP group and pMVA-1 group",[1]; Q3d x 8,significantly lower
same,tumor growth,"[1]; Q3d x 8, Cisplatin ip once a week",slow tumor growth
OO [H2O2],intracellular ROS level,"A549 cells [2]; A549, 3 h, H2O2 at 200 μM, *P<0.05",increased significantly
"CC(=O)N[C@@H](CS)C(=O)O [NAC, N-Acetyl-L-cysteine]",intracellular ROS level after NAC pretreatment,A549 cells [2]; A549 pretreated with 5 mM NAC before pMVA-1/DOTAP complex,decreased significantly
same,death ratio of A549 cells,A549 cells [3],significantly reduced
